Experimental data from patent publication US20250042885A1, “SOLID STATE FORMS OF LOTILANER AND PROCESS FOR PREPARATION THEREOF” (TEVA PHARMACEUTICALS INTERNATIONAL GMBH, priority 2021, published 2025).

Assays:
Format in all cases: physicochemical
[1] = Thermal stability (heating, XRPD)
Description: (§1) X-ray diffraction was performed on X-Ray powder diffractometer Bruker D8 Advance; CuK_radiation (λ=1.5418 Å); Lynx eye detector; laboratory temperature 22-25° C.; PMMA specimen holder ring. Prior to analysis, the samples were gently ground by means of mortar and pestle in order to obtain a fine powder. The ground sample was adjusted into a cavity of the sample holder and the surface of the sample was smoothed by means of a cover glass.
(§2) • Scan range: 2-40 degrees 2-theta; • Scan mode: continuous; • Step size: 0.05 degrees; • Time per step: 0.5 s; • Sample spin: 30 rpm; • Sample holder: PMMA specimen holder ring with silicon low background holder.
Samples of Lotilaner forms were subjected to heating up to 100° C. for 30 minutes. XRPD analysis of the sample confirmed no change in the starting material (Table 4): […]

[2] = Storage stability at different relative humidities (XRPD); details: for at least 7 days; conclusion from Table 1
Description: (§3) Prior to analysis, the samples were gently ground by means of mortar and pestle in order to obtain a fine powder. The ground sample was adjusted into a cavity of the sample holder and the surface of the sample was smoothed by means of a cover glass.
as §2
Samples of Lotilaner forms were subjected to conditions of different relative humidities at ambient temperature. XRPD analysis was performed on the samples after 7 days.

[3] = Storage stability at different temperatures and/or relative humidities (XRPD)
Description: as §3, §2
Samples of Lotilaner forms were subjected to conditions of different temperatures and/or relative humidities. XRPD analysis was performed on the samples after 1, 3 or 6 months.

[4] = Stability to compression (XRPD)
Description: as §3, §2
Samples of Lotilaner forms were subjected to pressures of 2 tons for one minute. XRPD analysis was performed on the samples after 1 minute.

[5] = Grinding experiments (strong grinding, solvent drop grinding; XRPD)
Description: as §1, §2
Samples of Lotilaner forms were subjected to strong grinding, and to solvent drop grinding in water, ethanol or isopropanol. Grinding was carried out on the samples alone, or in the presence of ethanol, water or isopropanol. In these experiments, about 20 mg of the sample is placed in a mortar and ground with a pestle for 2 minutes. The solvent, when used, as added to the crystalline material before grinding, in a volume of 10 microlitres. XRPD analysis performed on each of the samples after the grinding experiment, confirmed no change in the starting material (Table 3): […]

For `Cc1cc(C2=NO[C@@](c3cc(Cl)c(Cl)c(Cl)c3)(C(F)(F)F)C2)sc1C(=O)NCC(=O)NCC(F)(F)F` [Form LT1 Lotilaner, 3-Methyl-N-[2-oxo-2-(2,2,2-trifluoroethylamino)ethyl]-5-[(5S)-5-(3,4,5-trichlorophenyl)-5-(trifluoromethyl)-4H-1,2-oxazol-3-yl]thiophene-2-carboxamide], the “XRPD analysis after heating 100° C., 30 minutes” value [1] was “No change”, the “Stability after exposure to high and low relative humidity” value [2] was “stable” and the “XRPD analysis after storage, 2-8° C.” value ([3]; 6 months (6 m)) was “No change”. For the same compound, the “XRPD analysis after storage, 25° C., 60% RH” value (“XRPD analysis … 60% RH” below) ([3]; 6 months (6 m)) was “No change”, the “XRPD analysis after storage, 40° C., 75% RH” value (“XRPD analysis … 75% RH” below) ([3]; 6 months (6 m)) was “No change” and the Storage stability ([3]; conclusion from Table 2) was “good storage stability”. The “XRPD analysis results, pressure (2 tons)” value ([4]; 2 tons for one minute) was “No change”, the “Stability under high pressure conditions” value ([4]; conclusion from Table 5) was “stable” and the “XRPD analysis after strong grinding” value ([5]; about 20 mg ground in mortar with pestle for 2 minutes, no solvent) was “No change”. For the same compound, the “Resistance to polymorphic changes on grinding” value ([5]; conclusion from Table 3) was “resistant to polymorphic changes”, the “XRPD analysis after solvent-drop grinding (ethanol)” value ([5]; ground 2 minutes, 10 microlitres ethanol) was “No change” and the “XRPD analysis after solvent-drop grinding (isopropanol)” value ([5]; ground 2 minutes, 10 microlitres isopropanol) was “No change”. For the same compound, the “XRPD analysis after solvent-drop grinding (water)” value ([5]; ground 2 minutes, 10 microlitres water) was “No change”.
In the case of `Cc1cc(C2=NO[C@@](c3cc(Cl)c(Cl)c(Cl)c3)(C(F)(F)F)C2)sc1C(=O)NCC(=O)NCC(F)(F)F` [Form LT4 Lotilaner, 3-Methyl-N-[2-oxo-2-(2,2,2-trifluoroethylamino)ethyl]-5-[(5S)-5-(3,4,5-trichlorophenyl)-5-(trifluoromethyl)-4H-1,2-oxazol-3-yl]thiophene-2-carboxamide], the “XRPD analysis after storage, 2-8° C.” value ([3]; 3 months (3 m)) is reported as “No change”, the “XRPD analysis … 60% RH” value ([3]; 3 months (3 m)) is reported as “No change” and the “XRPD analysis … 75% RH” value ([3]; 3 months (3 m)) is reported as “No change”.
With `Cc1cc(C2=NO[C@@](c3cc(Cl)c(Cl)c(Cl)c3)(C(F)(F)F)C2)sc1C(=O)NCC(=O)NCC(F)(F)F` [Form LT5 Lotilaner, 3-Methyl-N-[2-oxo-2-(2,2,2-trifluoroethylamino)ethyl]-5-[(5S)-5-(3,4,5-trichlorophenyl)-5-(trifluoromethyl)-4H-1,2-oxazol-3-yl]thiophene-2-carboxamide] the “XRPD analysis after storage, 2-8° C.” value ([3]; 1 month (1 m)) was “No change”, the “XRPD analysis … 60% RH” value ([3]; 1 month (1 m)) was “No change” and the “XRPD analysis … 75% RH” value ([3]; 1 month (1 m)) was “No change”.
